{"source": "patent US20230165251A1", "about": "“SUBSTITUTED TOLYL FUNGICIDES AND THEIR MIXTURES” (FMC Corporation, priority 2020, published 2023)", "type_in_all_cases": "in vivo", "conditions_in_all_cases": "Rate 250 ppm", "key": {"Zymoseptoria tritici": {"tested_on": "Zymoseptoria tritici", "assay": "Test A: preventive spray on wheat seedlings, wheat leaf blotch", "text": "(§1) General protocol for preparing test suspensions for Tests A-F: the test compounds were first dissolved in acetone in an amount equal to 3% of the final volume and then suspended at the desired concentration (in ppm) in acetone and purified water (50/50 mix by volume) containing 250 ppm of the surfactant PEG400 (polyhydric alcohol esters). The resulting test suspensions were then used in Tests A-F.\nThe test solution was sprayed to the point of run-off on wheat seedlings. The following day the seedlings were inoculated with a spore suspension of Zymoseptoria tritici (the causal agent of wheat leaf blotch) and incubated in a saturated atmosphere at 24° C. for 48 h, and then moved to a growth chamber at 20° C. for 17 days, after which time disease ratings were made.\n(§2) A rating of 100 indicates 100% disease control and a rating of 0 indicates no disease control (relative to the controls). A dash (-) indicates the compound was not tested."}, "[1]": {"tested_on": "Puccinia recondita f. sp. tritici", "assay": "Test B: preventive spray on wheat seedlings, wheat leaf rust", "in_short": "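Compound in acetone (3% of final volume) was suspended at the stated ppm in acetone/water 50/50 with 250 ppm PEG400 and sprayed to run-off on wheat seedlings. Puccinia recondita spores were inoculated next day, then 24 h saturated atmosphere at 20 °C and 7 days at 20 °C. Rated 0–100% disease control versus controls.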"}, "[2]": {"tested_on": "Blumeria graminis f. sp. tritici", "assay": "Test C: preventive spray on wheat seedlings, wheat powdery mildew", "text": "as §1\nThe test suspension was sprayed to the point of run-off on wheat seedlings. The following day the seedlings were inoculated with a spore dust of Blumeria graminis f. sp. tritici, (also known as Erysiphe graminis f. sp. tritici, the causal agent of wheat powdery mildew) and incubated in a growth chamber at 20° C. for 8 days, after which time visual disease ratings were made.\nas §2"}, "Phakopsora pachyrhizi": {"tested_on": "Phakopsora pachyrhizi", "assay": "Test D: preventive spray on soybean seedlings, Asian soybean rust", "in_short": "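Soybean seedlings sprayed to run-off with compound suspension (ppm, in 50/50 acetone/water with 250 ppm PEG400), inoculated next day with P. pachyrhizi spores, held 24 h saturated at 22°C then 8 days at 22°C. Visual rating 0-100% disease control relative to controls.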"}, "Botrytis cinerea": {"tested_on": "Botrytis cinerea", "assay": "Test E: preventive spray on tomato seedlings, tomato Botrytis", "text": "as §1\nThe test suspension was sprayed to the point of run-off on tomato seedlings. The following day the seedlings were inoculated with a spore suspension of Botrytis cinerea (the causal agent of tomato Botrytis) and incubated in a saturated atmosphere at 20° C. for 48 h, and then moved to a growth chamber at 24° C. for 3 days, after which time visual disease ratings were made.\nas §2"}, "Alternaria solani": {"tested_on": "Alternaria solani", "assay": "Test F: preventive spray on tomato seedlings, tomato early blight", "text": "as §1\nThe test suspension was sprayed to the point of run-off on tomato seedlings. The following day the seedlings were inoculated with a spore suspension of Alternaria solani (the causal agent of tomato early blight) and incubated in a saturated atmosphere at 27° C. for 48 h, and then moved to a growth chamber at 20° C. for 3 days, after which time visual disease ratings were made.\nas §2"}}, "data": [{"molecule": "COC(=O)NCc1cc(-c2cn(-c3c(F)cc(F)cc3Cl)nn2)ccc1C", "note": "[compound 122]", "values": [{"measurement": "Test A disease control rating", "setting": "Zymoseptoria tritici", "value": 71, "unit": "%"}, {"measurement": "Test B disease control rating", "setting": "[1]", "value": 99, "unit": "%"}, {"measurement": "Test C disease control rating", "setting": "[2]", "value": 0, "unit": "%"}, {"measurement": "Test D disease control rating", "setting": "Phakopsora pachyrhizi", "value": 100, "unit": "%"}, {"measurement": "Test E disease control rating", "setting": "Botrytis cinerea", "value": 0, "unit": "%"}, {"measurement": "Test F disease control rating", "setting": "Alternaria solani", "value": 0, "unit": "%"}]}]}
